pIC50: −log10 of the molar value.
Molecular target: T1, dopamine-2 receptor (Rattus norvegicus, UniProt P61169)
T1 construct: The caudate and mesolimbic areas were then homogenized; from tissue; host or cells: rat brain, caudate and mesolimbic areas (washed membrane homogenate)
Assay: 3[H]-N-propylnorapomorphine binding assay (rat caudate and mesolimbic brain tissue)
Conditions: inhibition of 3[H]-N-propylnorapomorphine binding, 0.32 nM radioligand, pH 7.5, 25° C., 30 minutes
Protocol: The anti-psychotic activity of the compounds of the present invention as neuroleptic agents for the control of various psychotic disorders is determined primarily by a study of their ability to suppress ^3 [H]-N-propylnorapormorphine (dopamine-2 receptor) uptake in the brain of rats (in vitro). This study is carried out in a standard ^3 [H]-N-propylnorapomorphine binding assay test, where the amount of radioactivity is determined by liquid scintillation counting. In this way, the compounds can be rated in terms of their ability to reduce the amount of radioactivity caused by the aforesaid dopamine-2-receptor.
The N-substituted arylpiperidine compounds of Examples 1-18, respectively, were tested for anti-psychotic activity in rats, using the standard ^3 [H]-N-propylnorapomorphine binding assay test, according to the general procedure described by K. Fuxe et al., as reported in the European Journal of Pharmacology, Vol. 100, p. 127 (1984).
In this procedure, the brain was quickly removed from a decapitated rat and the caudate and mesolimbic areas were subsequently dissected therefrom to afford an average of ca. 150-180 mg. of material per rat. The caudate and mesolimbic areas were then homogenized on admixture with 40 volumes of ice-cold 15 mM Tris (i.e., tromethamine which is 2-amino-2-hydroxymethyl-1,3-propanediol) hydrochloride buffer having a pH of 7.5, which also contained 1.0 mM ethylenediaminetetraacetic acid (EDTA) and 0.01% ascorbic acid. The homogenate was next centrifuged at 35,000×G for a period of ten minutes. The supernatant liquid was then decanted, and the resulting pellet subsequently resuspended in 40 volumes of fresh, ice-cold Tris-EDTA buffer and homogenized, followed by incubation 37° C. for a period of ten minutes. The resulting homogenate was next re-centrifuged at 35,000×G for another ten-minute period, followed by decantation of the supernatant liquid. The pellet obtained in this manner was then resuspended again in the Tris-EDTA buffer, followed by a repeat of the centrifugation and decantation steps, with the final pellet being resuspended once more in 15 mM Tris-EDTA buffer at a concentration level of 11.25 mg./ml. This completed the production of the tissue preparation phase of the overall procedure.
. The final reaction mixture was next vortexed and incubated at 25° C. for a period of 30 minutes (using a 25° C. water bath for these purposes). […] Upon completion of the reaction step, the incubation period was terminated by subjecting the tubes to rapid filtration under vacuum through fiber filters, followed by two rinses with 5 ml. of ice-cold 15 mM Tris-EDTA buffer for each tube. The filters thus obtained were next soaked in 10 ml. of Aquasol 2 (a registered trademark name of New England Nuclear Corporation of Boston, Massachusetts for a liquid scintillation counter material), vortexed and then allowed to stand overnight (ca. 18 hours) at ambient temperatures in order to extract radioactivity. The amount of radioactivity was determined by liquid scintillation counting, using a Beta counter at 53% counting efficiency. The IC50 values were thereafter calculated by using standard statistical methods. On this basis, the ability of each test compound to reduce the amount of radioactivity caused by ^3 [H]-N-propylnorapomorphine is given as an IC50 value, expressed in terms of nM units.
In this way, the N-substituted arylpiperidine compounds of formula I that were reported as final products in Examples 1-18, respectively, were all assayed and found to be capable of inhibiting ^3 [H]-N-propylnorapomorphine binding at its dopamine-2 receptor site at the previously-indicated dose level tested. The results obtained in this manner are shown below in the following table, where the binding assay for each compound is reported in terms of the previously-discussed IC50 value: […]

T1 sequence (P61169 whole entry): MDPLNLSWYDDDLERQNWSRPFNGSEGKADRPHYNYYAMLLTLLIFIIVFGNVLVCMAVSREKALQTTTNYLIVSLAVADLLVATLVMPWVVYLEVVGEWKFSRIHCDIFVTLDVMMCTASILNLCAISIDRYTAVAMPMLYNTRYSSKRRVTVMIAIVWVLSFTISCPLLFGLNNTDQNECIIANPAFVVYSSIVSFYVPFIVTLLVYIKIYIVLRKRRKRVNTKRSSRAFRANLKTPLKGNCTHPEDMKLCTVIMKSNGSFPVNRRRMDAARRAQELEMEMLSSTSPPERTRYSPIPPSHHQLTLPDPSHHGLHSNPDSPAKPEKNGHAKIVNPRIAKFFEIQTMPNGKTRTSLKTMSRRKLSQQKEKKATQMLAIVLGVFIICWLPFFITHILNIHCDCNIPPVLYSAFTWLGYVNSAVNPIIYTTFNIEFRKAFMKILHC

Cc1nc2ccccn2c(=O)c1CCN1CCC(c2cccc3ccccc23)CC1 [Example 1, 3-{2-[4-(1-naphthyl)-piperidinyl]ethyl}-2-methyl-4H-pyrido[1,2-a]-pyrimidine-4-one]
pIC50: 6.94

Nc1nc(-c2ccc(CCN3CCC(c4cccc5ccccc45)CC3)cc2)cs1 [Example 2, 4-{{4-{2-[4-(1-naphthyl)piperidinyl]ethyl}phenyl}}thiazole-2-amine]
pIC50: 6.71

O=C1CC2(CCCC2)CC(=O)N1CCCCN1CCC(c2cccc3ccccc23)CC1 [Example 3, 8-{4-[4-(1-naphthyl)-1-piperidinyl]-butyl}-8-azaspiro[4.5]decane-7,9-dione]
pIC50: 6.62

O=C1Cc2cc(CCN3CCC(c4cccc5ccccc45)CC3)ccc2N1 [Example 4, 5-{2-[4-(1-naphthyl)-1-piperidinyl]ethyl}-oxindole]
pIC50: 6.74

O=C1Cc2cc(CCN3CCCC(c4cccc5ccccc45)C3)ccc2N1 (stereo not drawn) [Example 5, 5-{2-[3-(1-naphthyl)-1-piperidinyl]ethyl}oxindole]
pIC50: 6.77

CC12CCC(C(=O)N(CCCCN3CCC(c4cccc5ccccc45)CC3)C1=O)C2(C)C (stereo not drawn) [Example 6, 3-{4-[4-(1-naphthyl)-1-piperidinyl]-n-butyl}-1,8,8-trimethyl-3-azabicyclo[3.2.1]octane-2,4-dione]
pIC50: 6.77

CC12CCC(C(=O)N(CCCCN3CCCC(c4cccc5ccccc45)C3)C1=O)C2(C)C (stereo not drawn) [Example 7]
pIC50: 5.95

Oc1ccc(CCN2CCC(c3ccccc3)CC2)cc1 [Example 8, 4-[2-(4-phenyl-1-piperidinyl)ethyl]phenol]
pIC50: 6.44

Oc1ccc(CCN2CCC(c3cccc(C(F)(F)F)c3)CC2)cc1 [Example 9, 4-{2-[4-(3-trifluoromethylphenyl)-piperidinyl]ethyl}phenol]
pIC50: 6.22

FC(F)(F)c1cccc(C2CCN(CCOc3ccccc3)CC2)c1 [Example 10, 1-{2-[4-(3-trifluoromethylphenyl)-1-piperidinyl]ethyloxy}benzene]
pIC50: 6.68

COc1ccccc1C1CCN(CCc2ccc(-c3csc(N)n3)cc2)CC1 [Example 11, 4-{{4-{2-[4-(2-methoxyphenyl)-1-piperidinyl]ethyl}-phenyl}}-thiazole-2-amine]
pIC50: 7.44

COc1ccccc1C1CCCN(CCc2ccc(-c3csc(N)n3)cc2)C1 (stereo not drawn) [Example 12, 4-{{4-{2-[3-(2-methoxyphenyl)-1-piperidinyl]ethyl}phenyl}}-thiazole-2-amine]
pIC50: 6.82

COc1ccccc1C1CCCN(CCCCc2ccc(-c3csc(N)n3)cc2)C1 (stereo not drawn) [Example 13, 4-{{4-{4-[3-(2-methoxyphenyl)-1-piperidinyl]n-butyl}-phenyl}}thiazole-2amine]
pIC50: 6.61

COc1ccccc1C1CCN(CCCCc2ccc(-c3csc(N)n3)cc2)CC1 [Example 14, 4-{{4-{4-[4-(2-methoxyphenyl)-1-piperidinyl]-n-butyl}-phenyl}}thiazole-2-amine]
pIC50: 7.29

COc1ccccc1C1CCCN(CCCCN2C(=O)CC3(CCCC3)CC2=O)C1 (stereo not drawn) [Example 15, 8-{4-[3-(2-methoxyphenyl)-1-piperidinyl]-n-butyl}-8-azaspiro[4.5]decane-7,9-dione]
pIC50: 6.27

COc1ccccc1C1CCN(CCc2ccc3c(c2)CC(=O)N3)CC1 [Example 16, 5-{2-[4-(2-methoxyphenyl)-1-piperidinyl]ethyl}oxindole]
pIC50: 7.28

COc1ccccc1C1CCN(CCCCN2C(=O)C3CCC(C)(C2=O)C3(C)C)CC1 (stereo not drawn) [Example 17]
pIC50: 7.29

COc1ccccc1C1CCCN(CCCCN2C(=O)C3CCC(C)(C2=O)C3(C)C)C1 (stereo not drawn) [Example 18, 3-{4-[3-(2-methoxyphenyl)-1-piperidinyl]-n-butyl]-1,8,8-trimethyl-3-azabicyclo[3.2.1]octane-2,4-dione]
pIC50: 6.17
